Laboratory results from patent US11053204B2, “Pyrimidinyloxy benzene derivatives as herbicides” (FMC Corporation, priority 2015, dated 2021).

Assays:
Format in all cases: in vivo
[1] = system: Italian ryegrass (Lolium multiflorum); assay: Test A preemergence, visual injury rating; conditions: for Plant response rating, Ryegrass, Italian: 31 g ai/ha, 0 to 100 scale, 0 no effect, 100 complete control; for Ryegrass, Italian plant response rating: 125 g ai/ha, 0 to 100 scale (0 no effect, 100 complete control)
In short: (§1)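 Scoring: eye-based comparison with untreated controls, 0 for no effect through 100 for complete control, at about day 10. Treatments: directed soil spray preemergence; foliar spray postemergence on 2–10 cm plants at the one- to two-leaf stage. Medium: loam soil with sand.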

[2] = system: barnyardgrass (Echinochloa crus-galli); assay: Test A preemergence, visual injury rating; conditions: for Plant response rating, Barnyardgrass: 31 g ai/ha, 0 to 100 scale, 0 no effect, 100 complete control; for Barnyardgrass plant response rating: 125 g ai/ha, 0 to 100 scale (0 no effect, 100 complete control)
In short: as §1

[3] = system: giant foxtail (Setaria faberii); assay: Test A preemergence, visual injury rating; conditions: for Plant response rating, Foxtail, Giant: 31 g ai/ha, 0 to 100 scale, 0 no effect, 100 complete control; for Foxtail, Giant plant response rating: 125 g ai/ha, 0 to 100 scale (0 no effect, 100 complete control)
In short: as §1

[4] = system: kochia (Kochia scoparia); assay: Test A preemergence, visual injury rating; conditions: for Plant response rating, Kochia: 31 g ai/ha, 0 to 100 scale, 0 no effect, 100 complete control; for Kochia plant response rating: 125 g ai/ha, 0 to 100 scale (0 no effect, 100 complete control)
In short: as §1

[5] = system: pigweed (Amaranthus retroflexus); assay: Test A preemergence, visual injury rating; conditions: for Plant response rating, Pigweed: 31 g ai/ha, 0 to 100 scale, 0 no effect, 100 complete control; for Pigweed plant response rating: 125 g ai/ha, 0 to 100 scale (0 no effect, 100 complete control)
In short: as §1

[6] = system: ragweed (common ragweed, Ambrosia elatior); assay: Test A preemergence, visual injury rating; conditions: for Plant response rating, Ragweed: 31 g ai/ha, 0 to 100 scale, 0 no effect, 100 complete control; for Ragweed plant response rating: 125 g ai/ha, 0 to 100 scale (0 no effect, 100 complete control)
In short: as §1

[7] = system: Italian ryegrass (Lolium multiflorum); assay: Test A postemergence, visual injury rating; conditions: 0 to 100 scale, 0 is no effect, 100 is complete control, approximately 10 days
In short: as §1

[8] = system: barnyardgrass (Echinochloa crus-galli); assay: Test A postemergence, visual injury rating; conditions: 0 is no effect, 100 is complete control; for Barnyardgrass plant response rating: 31 g ai/ha, 0 to 100 scale, approximately 10 days; for Barnyardgrass plant response rating (0 to 100 scale): 125 g ai/ha
In short: as §1

[9] = system: blackgrass (Alopecurus myosuroides); assay: Test A postemergence, visual injury rating; conditions: 0 is no effect, 100 is complete control; for Blackgrass plant response rating: 31 g ai/ha, 0 to 100 scale, approximately 10 days; for Blackgrass plant response rating (0 to 100 scale): 125 g ai/ha
In short: as §1

[10] = system: corn (Zea mays); assay: Test A postemergence, visual injury rating; conditions: 0 is no effect, 100 is complete control; for Corn plant response rating: 31 g ai/ha, 0 to 100 scale, approximately 10 days; for Corn plant response rating (0 to 100 scale): 125 g ai/ha
In short: as §1

[11] = system: galium (catchweed bedstraw, Galium aparine); assay: Test A postemergence, visual injury rating; conditions: 0 is no effect, 100 is complete control; for Galium plant response rating: 31 g ai/ha, 0 to 100 scale, approximately 10 days; for Galium plant response rating (0 to 100 scale): 125 g ai/ha
In short: as §1

[12] = system: giant foxtail (Setaria faberii); assay: Test A postemergence, visual injury rating; conditions: 0 is no effect, 100 is complete control; for Foxtail, Giant plant response rating: 31 g ai/ha, 0 to 100 scale, approximately 10 days; for Foxtail, Giant plant response rating (0 to 100 scale): 125 g ai/ha
In short: as §1

[13] = system: kochia (Kochia scoparia); assay: Test A postemergence, visual injury rating; conditions: 0 to 100 scale, 0 is no effect, 100 is complete control, approximately 10 days
In short: as §1

[14] = system: pigweed (Amaranthus retroflexus); assay: Test A postemergence, visual injury rating; conditions: 0 to 100 scale, 0 is no effect, 100 is complete control, approximately 10 days
In short: as §1

[15] = system: ragweed (common ragweed, Ambrosia elatior); assay: Test A postemergence, visual injury rating; conditions: 0 to 100 scale, 0 is no effect, 100 is complete control, approximately 10 days
In short: as §1

[16] = system: wheat (Triticum aestivum); assay: Test A postemergence, visual injury rating; conditions: 0 to 100 scale, 0 is no effect, 100 is complete control, approximately 10 days
In short: as §1

[17] = system: barnyardgrass (Echinochloa crus-galli); assay: Test B flooded paddy test, plant response rating; conditions: 250 g ai/ha; Flood; scale of 0 to 100 where 0 is no effect and 100 is complete control; 13 to 15 days
In short: (§2)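 In-water treatment: compound dosed into 3 cm flood over soil, water level unchanged throughout. Controls run alongside; visual assessment at day 13–15.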

[18] = system: ducksalad (Heteranthera limosa); assay: Test B flooded paddy test, plant response rating; conditions: 250 g ai/ha; Flood; scale of 0 to 100 where 0 is no effect and 100 is complete control; 13 to 15 days
In short: as §2

[19] = system: rice (Oryza sativa); assay: Test B flooded paddy test, plant response rating; conditions: 250 g ai/ha; Flood; scale of 0 to 100 where 0 is no effect and 100 is complete control; 13 to 15 days
In short: as §2

[20] = system: sedge, umbrella (small-flower umbrella sedge, Cyperus difformis); assay: Test B flooded paddy test, plant response rating; conditions: 250 g ai/ha; Flood; scale of 0 to 100 where 0 is no effect and 100 is complete control; 13 to 15 days
In short: as §2

| SMILES | Plant response rating, Ryegrass, Italian [1] | Ryegrass, Italian plant response rating [1] | Plant response rating, Barnyardgrass [2] | Barnyardgrass plant response rating [2] | Plant response rating, Foxtail, Giant [3] | Foxtail, Giant plant response rating [3] | Plant response rating, Kochia [4] | Kochia plant response rating [4] | Plant response rating, Pigweed [5] | Pigweed plant response rating [5] | Plant response rating, Ragweed [6] | Ragweed plant response rating [6] | Ryegrass, Italian plant response rating ([7]; 31 g ai/ha) | Ryegrass, Italian plant response rating ([7]; 125 g ai/ha) | Barnyardgrass plant response rating [8] | Barnyardgrass plant response rating (0 to 100 scale) [8] | Blackgrass plant response rating [9] | Blackgrass plant response rating (0 to 100 scale) [9] | Corn plant response rating [10] | Corn plant response rating (0 to 100 scale) [10] | also measured |
| --- | --- | --- | --- | --- | --- | --- | --- | --- | --- | --- | --- | --- | --- | --- | --- | --- | --- | --- | --- | --- | --- |
| CCCSC(=O)c1c(Br)cccc1Oc1ncc(Cl)cn1 [Compound 70] | 0 | 0 | 0 | 20 | 0 | 60 | 0 | 0 | 0 | 0 | 0 | 0 | 0 | 20 | 0 | 30 | 0 | 20 | 10 | 10 | Galium plant response rating [11]: 30; Galium plant response rating (0 to 100 scale) [11]: 70; Foxtail, Giant plant response rating [12]: 0; Foxtail, Giant plant response rating (0 to 100 scale) [12]: 30; Kochia plant response rating ([13]; 31 g ai/ha): 20; Kochia plant response rating ([13]; 125 g ai/ha): 70; Pigweed plant response rating ([14]; 31 g ai/ha): 10; Pigweed plant response rating ([14]; 125 g ai/ha): 20; Ragweed plant response rating ([15]; 31 g ai/ha): 0; Ragweed plant response rating ([15]; 125 g ai/ha): 20; Wheat plant response rating ([16]; 31 g ai/ha): 0; Wheat plant response rating ([16]; 125 g ai/ha): 0; Plant response rating, Barnyardgrass [17]: 0; Plant response rating, Ducksalad [18]: 70; Plant response rating, Rice [19]: 0; Plant response rating, Sedge, Umbrella [20]: 80 |
| O=C(SCCC(F)(F)F)c1c(Br)cccc1Oc1ncc(Cl)cn1 [Compound 71] | 0 | 0 | 0 | 10 | 40 | 100 | 0 | 0 | 0 | 40 | 0 | 0 | 0 | 20 | 0 | 40 | 10 | 30 | 10 | 20 | Galium plant response rating [11]: 30; Galium plant response rating (0 to 100 scale) [11]: 90; Foxtail, Giant plant response rating [12]: 10; Foxtail, Giant plant response rating (0 to 100 scale) [12]: 40; Kochia plant response rating ([13]; 31 g ai/ha): 10; Kochia plant response rating ([13]; 125 g ai/ha): 50; Pigweed plant response rating ([14]; 31 g ai/ha): 30; Pigweed plant response rating ([14]; 125 g ai/ha): 70; Ragweed plant response rating ([15]; 31 g ai/ha): 0; Ragweed plant response rating ([15]; 125 g ai/ha): 20; Wheat plant response rating ([16]; 31 g ai/ha): 0; Wheat plant response rating ([16]; 125 g ai/ha): 0; Plant response rating, Barnyardgrass [17]: 0; Plant response rating, Ducksalad [18]: 90; Plant response rating, Rice [19]: 0; Plant response rating, Sedge, Umbrella [20]: 95 |
| FC(F)(F)CCCOCc1c(Br)cccc1Oc1ncc(Cl)cn1 [Compound 74] | 0 | 20 | 10 | 60 | 40 | 100 | 0 | 100 | 20 | 90 | 0 | 0 | 0 | 20 | 10 | 40 | 10 | 30 | 10 | 20 | Galium plant response rating [11]: 20; Galium plant response rating (0 to 100 scale) [11]: 80; Foxtail, Giant plant response rating [12]: 20; Foxtail, Giant plant response rating (0 to 100 scale) [12]: 70; Kochia plant response rating ([13]; 31 g ai/ha): 20; Kochia plant response rating ([13]; 125 g ai/ha): 40; Pigweed plant response rating ([14]; 31 g ai/ha): 60; Pigweed plant response rating ([14]; 125 g ai/ha): 100; Ragweed plant response rating ([15]; 31 g ai/ha): 0; Ragweed plant response rating ([15]; 125 g ai/ha): 10; Wheat plant response rating ([16]; 31 g ai/ha): 0; Wheat plant response rating ([16]; 125 g ai/ha): 10; Plant response rating, Barnyardgrass [17]: 40; Plant response rating, Ducksalad [18]: 100; Plant response rating, Rice [19]: 0; Plant response rating, Sedge, Umbrella [20]: 100 |
| CC(=NOC(C)C)c1c(F)cccc1Oc1ncc(Cl)cn1 [Compound 76] | 0 | 0 | 0 | 70 | 0 | 70 | 0 | 0 | 0 | 50 | 0 | 0 | 0 | 0 | 0 | 0 | 0 | 0 | 0 | 0 | Galium plant response rating [11]: 0; Galium plant response rating (0 to 100 scale) [11]: 90; Foxtail, Giant plant response rating [12]: 0; Foxtail, Giant plant response rating (0 to 100 scale) [12]: 0; Kochia plant response rating ([13]; 31 g ai/ha): 0; Kochia plant response rating ([13]; 125 g ai/ha): 0; Pigweed plant response rating ([14]; 31 g ai/ha): 0; Pigweed plant response rating ([14]; 125 g ai/ha): 30; Ragweed plant response rating ([15]; 31 g ai/ha): 0; Ragweed plant response rating ([15]; 125 g ai/ha): 0; Wheat plant response rating ([16]; 31 g ai/ha): 0; Wheat plant response rating ([16]; 125 g ai/ha): 0; Plant response rating, Barnyardgrass [17]: 0; Plant response rating, Ducksalad [18]: 85; Plant response rating, Rice [19]: 10; Plant response rating, Sedge, Umbrella [20]: 70 |
